Laboratory results as given in patent US9187458B2, “Cyanoquinoline derivatives” (Tianjin Hemay Bio-Tech Co., LTD., priority 2010, dated 2015).

Tests used:
Type in all cases: cell-based
SW620 cells = test: SW620 Cell Growth Inhibition Test (SRB Assay); conditions: Homo sapiens, SW-620, 91 h incubation
Method: SW620 Cell Growth Inhibition Test (SRB Assay)
Cell strains: SW620 (human colorectal cancer cell strains);
SRB: available from Sigmaaldrich, goods number: S9012, lot number: 047K3751. […] was reserved at the room temperature. 0.4% (w/v) of working solution was formulated with 1% of glacial acetic acid. The solution was reserved at 4° C.; anti-tumor compounds; DMSO.
Culture medium: 90% L15+10% FBS;
1. A plate (10 cm) of cells in logarithmic growth phase normally cultured was collected. The culture solution was sucked out. The plate was washed wtih 5 mL of PBS 1-2 times;
2. PBS was sucked out. […] of 0.25% pancreatin was added to infiltrate the cells for 30 s;
3. The pancreatin was sucked out. The culture plate was placed in an incubator. Digestion was carried out for about 1.5-2 min at 37° C.;
4. 4 mL of complete culture solution was added to the culture plate to stop the digestion. The cells were carefully scoured with micropipette (1 ml) to give a uniform single cell suspension;
5. Cell suspension was counted. The suspension was diluted to 1.5×10^5/ml. The resulting suspension was developed uniformly on a plate by 15000 cells/100 μl per well. The culture plate was incubated overnight under 5% CO2 at 37° C. In day 2, 100 μl of culture solution comprising a compound was added in each well, and further incubated for 91 h under 5% CO2 at 37° C.;
6. The culture solution was sucked out. 100 uL of TCA fixed cells which were diluted to 10% were added to each well. The plate was kept in a refrigerator for 1 h at 4° C.
7. TCA stationary liquid was sucked out. Each well was washed with 150 μL of ddH2O five times;
8. After the stationary liquid was cleansed, the plate was dried in the air at the room temperature;
9. 60 μL of SRB staining solution was added in each well. The well was stained for 15 min at the room temperature;
10. The SRB staining solution was sucked out. Each well was washed with 150 μL of 1% glacial acetic acid five times;
11. After the SRB staining solution was cleansed, the plate was dried in the air at the room temperature;
12. 100 μL of 10 mM Tris was added in each well, the plate was vibrated to dissolve out SRB;
13. OD values were determined at 570 nM.
To: OD values of the starting content of cells when the cells were developed on a plate;
PC: OD values of cells after normal growth in control wells without a compound;
Ti: OD values of cells after growth in test wells with a compound;
NC: Background OD values of blank wells without a compound and cells
Therefore: Ratio of cells in test wells to normal wells (% of control cell growth)=(Ti−To)/(PC−To)×100%
Ratio GI50 was concentration of a compound at the point of 50%.
Therefore: Ratio of killed cells to inoculated cells (% of killed cell)=(Ti−To)/(To−NC)×100%
LC50 was concentration point of a compound when half of the starting inoculated concentration was reached.
Concentration of a compound at this point is defined as TGI (total growth inhibition).

CCRF-CEM/T cells = test: CCRF-CEM/T Cell Growth Inhibition Test (MTT Assay); conditions: Homo sapiens, CCRF-CEM/T cells (resistant to paclitaxel), 72 h incubation
Method: CCRF-CEM/T Cell Growth Inhibition Test (MTT Assay)
Cell strains: CCRF-CEM/T (human acute lymphocytic cell leukemia cells);
triple lysate solution: 10% SDS, 5% isobutanol, 0.012M HCl.
1. Cells were cultured to exponential phase. The cells were suspension cells;
2. The cells were collected by centrifuge. The resulting cells were resuspended in a complete culture medium to a desired concentration. The cells suspension was implanted into a 96-well cell culture plate by 20000 cells per well. A compound was added in the wellsuch that the final volume of the system was 120 μl. The system was further incubated for 72 h under 5% CO2 at 37° C.
7. 30 μl of serum-free culture solution containing 2.5 mg/ml MTT was added in each well, and incubated for 3 h;
8. 150 μl of triple lysate solution was added in each well and placed to dissolve at the room temperature;
9. OD values were determined at 570 nM.
(§1) 1. Calculation of Relative Inhibition Ratio The inhibition ratio of a compound on cell growth=(PC−n)/(PC−NC)×100%
(§2) IC50: Concentration of a compound where inhibition ratio was 50%. IC50 values were fitted with Origin7.5.

SK-OV-3 cells = test: SK-OV-3 Cell Growth Inhibition Test (MTT Assay); conditions: Homo sapiens, 72 h incubation
Method: SK-OV-3 Cell Growth Inhibition Test (MTT Assay)
Cell strains: SK-OV-3 (human ovarian cancer cell strains);
Culture medium: 90% McCoy's 5A+10% FBS;
1. A plate (10 cm) of cells in logarithmic growth phase normally cultured was collected;
2. The culture solution was sucked out. The plate was washed with 5 ml of PBS 1-2 times;
3. PBS was sucked out. 1.5 ml of 0.25% pancreatin was added to infiltrate the cells for 1 min;
4. The pancreatin was sucked out. The culture plate was placed in an incubator. Digestion was carried out for about 5 min at 37° C.;
5. 4.5 ml of complete culture solution was added to the culture plate to stop the digestion.T the cells were carefully scoured with micropipette (1 ml) to give a uniform cell suspension. The suspension was implanted into a 96-well cell culture disc by 4000 cells/100 μl per well. The culture plate was incubated overnight under 5% CO2 at 37° C. In day 2, 100 μl of culture solution comprising a compound was added in each well, and further incubated for 72 h under 5% CO2 at 37° C.
6. The culture solution was sucked out;
7. 100 μl of serum-free culture solution containing 0.5 mg/ml MTT was added in each well, and incubated for 3 h;
8. The culture solution was carefully sucked out;
9. 100 μl of DMSO was added in each well and vibrated to dissolve;
10. OD values were determined at 490 nM.
as §1, §2

GI50 (SW620 cells)	IC50 (CCRF-CEM/T cells)	IC50 (SK-OV-3 cells)	Compound
3500 nM	5.8 µM	409 nM	CN(C)C/C=C/C(=O)Nc1cc2c(Nc3ccc(F)c(Cl)c3)c(C#N)cnc2cc1OC1CCOC1 (centres unmarked) [Example 4, (E)-N-(4-(3-CHLORO-4-FLUOROPHENYLAMINO)-3-CYANO-7-(TETRAHYDROFURAN-3-YL-OXY)QUINOLIN-6-YL)-4-(DIMETHYLAMINO)-BUT-2-ENAMIDE]
1680 nM	9 µM	195 nM	C#Cc1cccc(Nc2c(C#N)cnc3cc(OC4CCOC4)c(NC(=O)/C=C/CN(C)C)cc23)c1 (centres unmarked) [Example 5, (E)-N-(3-CYANO-4-(3-ETHYNYLPHENYLAMINO)-7-(TETRAHYDROFURAN-3-YL-OXY)QUINOLIN-6-YL)-4-(DIMETHYLAMINO)-BUT-2-ENAMIDE]
2100 nM	–	469 nM	CN(C)C/C=C/C(=O)Nc1cc2c(Nc3ccc(OCc4cccc(F)c4)c(Cl)c3)c(C#N)cnc2cc1OC1CCOC1 (centres unmarked) [Example 9, (E)-N-(4-(4-(3-FLUOROBENZYLOXY)-3-CHLOROPHENYLAMINO)-3-CYANO-7-(TETRAHYDROFURAN-3-YL-OXY)QUINOLIN-6-YL)-4-(DIMETHYLAMINO)-BUT-2-ENAMIDE]
1780 nM	–	–	CN(C)C/C=C/C(=O)Nc1cc2c(Nc3ccc(OCc4ccccn4)c(Cl)c3)c(C#N)cnc2cc1OC1CCOC1 (centres unmarked) [Example 21, (E)-N-(4-(3-CHLORO-4-(PYRIDIN-2-YL-METHOXY)PHENYLAMINO)-3-CYANO-7-(TETRAHYDROFURAN-3-YL-OXY)QUINOLIN-6-YL)-4-(DIMETHYLAMINO)-BUT-2-ENAMIDE]
1780 nM	5.6 µM	457 nM	CN(C)C/C=C/C(=O)Nc1cc2c(Nc3ccc(OCc4ccccn4)c(Cl)c3)c(C#N)cnc2cc1O[C@H]1CCOC1 [Example 138, (S,E)-N-(4-(3-CHLORO-4-(PYRIDIN-2-YL-METHOXY)PHENYLAMINO)-3-CYANO-7-(TETRAHYDROFURAN-3-YL-OXY)QUINOLIN-6-YL)-4-(DIMETHYLAMINO)-BUT-2-ENAMIDE]
1900 nM	1.4 µM	371 nM	CN(C)C/C=C/C(=O)Nc1cc2c(Nc3ccc(OCc4ccccn4)c(Cl)c3)c(C#N)cnc2cc1O[C@@H]1CCOC1 [Example 139, (R,E)-N-(4-(3-CHLORO-4-(PYRIDIN-2-YL-METHOXY)PHENYLAMINO)-3-CYANO-7-(TETRAHYDROFURAN-3-YL-OXY)QUINOLIN-6-YL)-4-(DIMETHYLAMINO)-BUT-2-ENAMIDE]
2300 nM	7.9 µM	286 nM	C#Cc1cccc(Nc2c(C#N)cnc3cc(O[C@H]4CCOC4)c(NC(=O)/C=C/CN(C)C)cc23)c1 [Example 140, (S,E)-N-(3-CYANO-4-(3-ETHYNYLPHENYLAMINO)-7-(TETRAHYDROFURAN-3-YL-OXY)QUINOLIN-6-YL)-4-(DIMETHYLAMINO)-BUT-2-ENAMIDE]
1400 nM	9.1 µM	283 nM	C#Cc1cccc(Nc2c(C#N)cnc3cc(O[C@@H]4CCOC4)c(NC(=O)/C=C/CN(C)C)cc23)c1 [Example 141, (R,E)-N-(3-CYANO-4-(3-ETHYNYLPHENYLAMINO)-7-(TETRAHYDROFURAN-3-YL-OXY)QUINOLIN-6-YL)-4-(DIMETHYLAMINO)-BUT-2-ENAMIDE]
2300 nM	6.6 µM	553 nM	CN(C)C/C=C/C(=O)Nc1cc2c(Nc3ccc(F)c(Cl)c3)c(C#N)cnc2cc1O[C@H]1CCOC1 [Example 142, (S,E)-N-(4-(3-CHLORO-4-FLUOROPHENYLAMINO)-3-CYANO-7-(TETRAHYDROFURAN-3-YL-OXY)QUINOLIN-6-YL)-4-(DIMETHYLAMINO)-BUT-2-ENAMIDE]
–	3.76 µM	–	CCN(CC)C/C=C/C(=O)Nc1cc2c(Nc3ccc(OCc4ccccn4)c(Cl)c3)c(C#N)cnc2cc1O[C@H]1CCOC1 [Example 150, (S,E)-N-(4-(3-CHLORO-4-(PYRIDIN-2-YL-METHOXY)PHENYLAMINO)-3-CYANO-7-(TETRAHYDROFURAN-3-YL-OXY)QUINOLIN-6-YL)-4-(DIETHYLAMINO)-BUT-2-ENAMIDE]
–	3.6 µM	–	N#Cc1cnc2cc(O[C@H]3CCOC3)c(NC(=O)/C=C/CN3CCCCC3)cc2c1Nc1ccc(OCc2ccccn2)c(Cl)c1 [Example 151, (S,E)-N-(4-(3-CHLORO-4-(PYRIDIN-2-YL-METHOXY)PHENYLAMINO)-3-CYANO-7-(TETRAHYDROFURAN-3-YL-OXY)QUINOLIN-6-YL)-4-(PIPERIDIN-1-YL)-BUT-2-ENAMIDE]
